Source: article PMC5478271, “Chemical structure-guided design of dynapyrazoles, cell-permeable dynein inhibitors with a unique mode of action” (eLife, 2017)

Target: T1, human cytoplasmic dynein 2 (GFP-dynein 2, amino acids 1091–4307) (Homo sapiens, UniProt Q8NCM8)
T1 construct: (AA 1091–4307, uniprot: Q8NCM8); protein A tag (followed by TEV-cleavable linker) (N, cleaved yes); made in house; host or cells: Sf9 insect cells (baculovirus)
Test: Microtubule gliding (motility) assay with GFP-dynein 2
Type: biochemical
Conditions: for Velocity of dynein-2-driven microtubule gliding: 20 µM compound, solvent control 128 ± 14 nm/s, mean ± S.D.; for Velocity of dynein-2-driven microtubule gliding / IC50: 1 mM MgATP, 0.05 mg/mL casein, 2% DMSO; for IC50: read-out: IC50, inhibition of GFP-dynein-2-driven motility
Protocol: We purified an N-terminally GFP-tagged motor-domain construct of dynein 2 using an insect cell expression system ([Schmidt et al., 2015]). The GFP tag in this construct (GFP-dynein 2, amino acids 1091–4307) allowed the motor protein to be immobilized on passivated glass coverslips used in microtubule gliding assays. GFP-dynein 2 was obtained as a mono-disperse peak by gel filtration (Figure 2D and E). In the presence of ATP (1 mM), this protein moved microtubules with a velocity of 128 ± 14 nm/s (mean ± SD, Figure 2G and I).
Reaction setup: A coverslip-based motility assay was adapted from similar assays reported previously ([Firestone et al., 2012]; [Schmidt et al., 2015]). A flow chamber assembled on a pre-cleaned microscope coverslide (3–5 µL chamber volume) was hydrated with buffer A (25 mM PIPES, 30 mM KCl, 5 mM MgCl2, 1 mM EGTA, 0.01% Triton X-100, 1 mM DTT, 20 µM taxol, pH 7.0 with KOH). Anti-GFP antibody (0.4 mg/mL, affinity purified rabbit antibody) was flowed into the chamber and allowed to adhere non-specifically to the glass for 20 s. The surface was blocked using 0.5 mg/mL α-casein in buffer A. Excess protein was then washed away with buffer A. GFP-dynein motor domain was diluted in buffer A supplemented with 1 mM DTT and 0.1 mM ATP (2 mM DTT final; GFP-dynein 2 diluted to: 180 nM; GFP-dynein 1 diluted to: 60 nM), flowed into the chamber and allowed to bind for 20 s. Excess protein was washed away with buffer A. Reaction mix (25 mM PIPES, 90 mM KCl, 6 mM MgCl2, 1 mM EGTA, 0.01% Triton X-100, 3 mM DTT, 20 µM taxol, 1 mM ATP, 1x oxygen scavenging system components [4.5 mg/mL glucose, 35 µg/mL catalase, 200 µg/mL glucose oxidase], 2% final DMSO [v/v] with compounds at appropriate concentrations, 0.05 mg/mL α-casein, microtubules [rhodamine labeled, purified from bovine brain, GMP-CPP and Taxol-stabilized], pH 7.0 with KOH) was flowed into the chamber using ~4 chamber volumes. For experiments shown in Figure 4—figure supplement 1, α-casein concentration in reaction mix was 0.5 mg/mL and all other parameters were held constant.
For reversibility experiments, motility in the presence of 5 µM 8 was observed as above, and upon completion of imaging, the chamber, fresh buffer A supplemented with 1 mM ATP was flowed into the chamber and incubated for 1 min; this wash and incubation cycle was repeated twice. Reaction mix containing DMSO (no compound) was flowed into the chamber using ~4 chamber volumes. The chamber was sealed with valap and returned to the microscope.
Microscopy conditions: Following addition of reaction mix, microtubules were allowed to bind for 5 min before imaging. For reversibility experiments, microtubules were allowed to bind for 10 min before imaging. Videos were taken on a Zeiss Axiovert 200M wide-field microscope equipped with a Zeiss 100x/1.45 NA α-Plan-Fluar objective. Data were captured with an EM-CCD camera (iXon DU-897, Andor Technology) with a 0.2 s exposure time and frame rate of 0.25–0.5/second. Four 10–20 s videos were captured per experimental condition. Velocities were measured using the kymograph tool in FIJI ([Schindelin et al., 2012]). Data analysis is discussed below under ‘General data analysis procedures.’
Microtubule velocity measurements: the tracks of microtubules were traced and converted to kymographs (x axis-displacement, y axis-time) using the kymograph function of FIJI (RRID: SCR_002285). The angle formed between an edge of a microtubule and the horizontal was measured. This angle, θ, was converted into velocity using the following relationship: velocity = 1/|tangent(θ)| * (unit pixel distance)/(time interval between frames).
The calibrated pixel distance was 0.152 µm and the time interval between frames was either 2 or 4 s. The velocities of at least seven microtubules were measured per field of view, if sufficient tracks could be found. In cases where fewer than seven microtubules were found in a field of view, velocities of all microtubules on the coverslip were measured. […]

T1 sequence (Q8NCM8 1091-4307): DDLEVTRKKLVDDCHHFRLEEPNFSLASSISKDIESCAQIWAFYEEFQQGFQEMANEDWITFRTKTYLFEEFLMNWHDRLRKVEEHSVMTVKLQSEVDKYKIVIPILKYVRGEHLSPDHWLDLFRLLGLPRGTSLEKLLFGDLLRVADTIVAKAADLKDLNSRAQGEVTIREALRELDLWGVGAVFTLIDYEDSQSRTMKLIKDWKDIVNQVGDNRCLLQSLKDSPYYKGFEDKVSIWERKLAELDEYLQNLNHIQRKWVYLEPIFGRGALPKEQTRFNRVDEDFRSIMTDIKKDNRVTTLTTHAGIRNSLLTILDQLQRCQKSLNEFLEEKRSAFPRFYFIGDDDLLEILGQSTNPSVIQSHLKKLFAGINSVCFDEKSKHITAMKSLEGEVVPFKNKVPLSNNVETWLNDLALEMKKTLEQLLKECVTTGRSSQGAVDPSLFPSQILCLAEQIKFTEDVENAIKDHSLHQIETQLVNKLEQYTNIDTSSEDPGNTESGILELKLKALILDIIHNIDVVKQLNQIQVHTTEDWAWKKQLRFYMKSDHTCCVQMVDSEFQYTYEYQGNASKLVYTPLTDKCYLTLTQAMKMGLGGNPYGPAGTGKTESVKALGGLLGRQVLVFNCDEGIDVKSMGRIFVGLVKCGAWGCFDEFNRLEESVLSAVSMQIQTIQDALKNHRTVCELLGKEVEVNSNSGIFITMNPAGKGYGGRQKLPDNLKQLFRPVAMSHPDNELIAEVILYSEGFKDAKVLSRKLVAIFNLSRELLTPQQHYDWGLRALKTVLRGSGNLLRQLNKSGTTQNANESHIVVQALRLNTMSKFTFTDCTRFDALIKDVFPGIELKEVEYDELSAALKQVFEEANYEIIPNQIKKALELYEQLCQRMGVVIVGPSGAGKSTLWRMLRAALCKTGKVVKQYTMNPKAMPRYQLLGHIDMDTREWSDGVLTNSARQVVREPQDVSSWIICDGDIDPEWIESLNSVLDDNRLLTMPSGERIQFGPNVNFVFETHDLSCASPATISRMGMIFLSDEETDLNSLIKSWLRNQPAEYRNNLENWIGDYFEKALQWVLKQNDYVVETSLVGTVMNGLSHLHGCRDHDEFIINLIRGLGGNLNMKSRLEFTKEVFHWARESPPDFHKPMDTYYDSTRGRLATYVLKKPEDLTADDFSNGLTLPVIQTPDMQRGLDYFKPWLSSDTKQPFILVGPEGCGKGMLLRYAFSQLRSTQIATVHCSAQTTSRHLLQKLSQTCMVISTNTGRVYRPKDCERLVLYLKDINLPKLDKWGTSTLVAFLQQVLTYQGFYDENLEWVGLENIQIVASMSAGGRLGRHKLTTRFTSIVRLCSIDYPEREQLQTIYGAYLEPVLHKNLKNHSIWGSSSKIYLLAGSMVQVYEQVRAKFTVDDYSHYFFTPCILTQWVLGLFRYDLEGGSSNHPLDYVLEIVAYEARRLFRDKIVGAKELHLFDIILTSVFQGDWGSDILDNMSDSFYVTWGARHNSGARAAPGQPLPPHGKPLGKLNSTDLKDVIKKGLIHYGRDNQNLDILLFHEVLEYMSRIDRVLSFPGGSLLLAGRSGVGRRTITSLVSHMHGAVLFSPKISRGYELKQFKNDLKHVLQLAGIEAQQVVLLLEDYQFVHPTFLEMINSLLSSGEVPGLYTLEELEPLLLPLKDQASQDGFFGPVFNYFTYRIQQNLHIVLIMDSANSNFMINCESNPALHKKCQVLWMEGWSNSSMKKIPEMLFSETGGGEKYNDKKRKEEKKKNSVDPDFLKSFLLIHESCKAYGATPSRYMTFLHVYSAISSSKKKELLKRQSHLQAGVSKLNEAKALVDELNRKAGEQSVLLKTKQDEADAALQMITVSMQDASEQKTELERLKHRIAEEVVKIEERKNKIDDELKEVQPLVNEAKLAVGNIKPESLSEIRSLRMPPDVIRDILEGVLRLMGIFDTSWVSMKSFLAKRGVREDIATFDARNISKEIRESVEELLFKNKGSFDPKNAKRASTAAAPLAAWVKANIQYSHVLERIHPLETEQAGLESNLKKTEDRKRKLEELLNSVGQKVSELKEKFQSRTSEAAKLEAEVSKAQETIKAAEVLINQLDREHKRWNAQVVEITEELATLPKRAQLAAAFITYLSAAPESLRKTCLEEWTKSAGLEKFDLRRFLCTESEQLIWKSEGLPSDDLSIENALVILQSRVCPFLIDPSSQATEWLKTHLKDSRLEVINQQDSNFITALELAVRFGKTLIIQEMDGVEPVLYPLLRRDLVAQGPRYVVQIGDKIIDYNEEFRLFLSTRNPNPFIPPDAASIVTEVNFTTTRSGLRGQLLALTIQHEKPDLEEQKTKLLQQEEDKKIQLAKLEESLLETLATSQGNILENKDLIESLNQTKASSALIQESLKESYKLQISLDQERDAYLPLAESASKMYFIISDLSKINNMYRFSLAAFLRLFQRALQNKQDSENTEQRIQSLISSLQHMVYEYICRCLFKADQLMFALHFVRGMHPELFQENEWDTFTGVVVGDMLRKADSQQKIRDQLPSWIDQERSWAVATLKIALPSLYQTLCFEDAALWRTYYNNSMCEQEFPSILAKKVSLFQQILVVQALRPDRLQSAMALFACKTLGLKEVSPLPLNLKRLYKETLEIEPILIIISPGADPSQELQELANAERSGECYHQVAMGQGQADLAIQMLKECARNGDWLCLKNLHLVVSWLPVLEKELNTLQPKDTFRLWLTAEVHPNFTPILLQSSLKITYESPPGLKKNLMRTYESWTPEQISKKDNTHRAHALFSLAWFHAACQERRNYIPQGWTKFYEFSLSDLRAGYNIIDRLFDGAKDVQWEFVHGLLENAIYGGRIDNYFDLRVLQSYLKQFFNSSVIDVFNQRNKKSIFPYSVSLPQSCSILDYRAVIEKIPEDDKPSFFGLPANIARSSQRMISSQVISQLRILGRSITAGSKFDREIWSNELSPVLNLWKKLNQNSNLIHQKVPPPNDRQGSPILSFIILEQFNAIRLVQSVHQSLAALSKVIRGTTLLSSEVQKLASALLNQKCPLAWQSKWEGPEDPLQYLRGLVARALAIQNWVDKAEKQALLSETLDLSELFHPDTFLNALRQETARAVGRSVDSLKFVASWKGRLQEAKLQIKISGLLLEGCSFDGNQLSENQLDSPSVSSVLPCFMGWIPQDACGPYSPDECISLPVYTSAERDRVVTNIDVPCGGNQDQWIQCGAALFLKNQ

SMILES | Velocity of dynein-2-driven microtubule gliding | IC50 [µM] | Improvement in potency of dynein 2 inhibition by cyclization (compound 6 versus compound 9) (microtubule gliding assay)
O=c1[nH]c2cc(-c3ccc(Cl)cc3Cl)nn2c2ccccc12 [Compound 3, 2-(2,4-dichlorophenyl)-4H-pyrazolo[1,5-a]quinazolin-5-one] | comparable to that observed in the presence of ciliobrevin D |  | 
N#Cc1c(-c2ccc(Cl)cc2Cl)nn2c1[nH]c(=O)c1ccccc12 [Compound 4, 2-(2,4-dichlorophenyl)-5-oxo-4H-pyrazolo[1,5-a]quinazoline-3-carbonitrile] | comparable to that observed in the presence of ciliobrevin D |  | 
N#Cc1c(C2(c3ccc(Cl)cc3)CC2)nn2c1[nH]c(=O)c1cc(C(F)(F)F)ccc12 [Compound 6, 2-(1-(4-chlorophenyl)cyclopropyl)-5-oxo-7-(trifluoromethyl)-4,5-dihydropyrazolo[1,5-a]quinazoline-3-carbonitrile] | 6 ± 2 nm/s | 2.9 ± 0.6 | ~ 6 fold
COc1ccc2c(c1)c(=O)[nH]c1c(C#N)c(C3(c4ccc(Cl)cc4)CC3)nn12 [Compound 7, 2-[1-(4-chlorophenyl)cyclopropyl]-7-methoxy-5-oxo-4H-pyrazolo[1,5-a]quinazoline-3-carbonitrile] | 128 ± 21 nm/s |  | 
N#Cc1c(C2(c3ccc(Cl)cc3)CC2)nn2c1[nH]c(=O)c1ccccc12 [Compound 5, 2-[1-(4-chlorophenyl)cyclopropyl]-5-oxo-4H-pyrazolo[1,5-a]quinazoline-3-carbonitrile] | 58 ± 14 nm/s |  | 
N#C/C(C(=O)c1ccc(Cl)cc1Cl)=C1\NC(=O)c2cc(C(F)(F)F)ccc2N1 [Compound 9, (E)-3-(2,4-dichlorophenyl)-3-oxo-2-(4-oxo-6-(trifluoromethyl)-3,4-dihydroquinazolin-2(1H)-ylidene)propanenitrile] |  | 17.7 | 
N#Cc1c(-c2ccc(Cl)cc2Cl)cn2c1[nH]c(=O)c1ccccc12 [Compound 2, 2-(2,4-dichlorophenyl)-5-oxo-4H-pyrrolo[1,2-a]quinazoline-3-carbonitrile] | 126 ± 17 nm/s |  | 
